Tests used:
Assay type in all cases: cell-based
[1] = system: cultured cells of Taxus baccata LINN; assay: Taxus baccata cell culture with coronatines
Description: A part of stem of Taxus baccata LINN which had been previously sterilized with 2% antiformin solution or 70% ethanol solution or the like, was placed on solid Woody Plant Medium (containing gelan gum of 0.25% by weight) to which naphthalenacetic acid had been added to give the concentration of 10^−5 M, and static culture was carried out at 25 ° C. in a dark place to provide callus of Taxus baccata LINN. One gram (fresh weight) of the callus was inoculated to an Erlenmeyer flask containing 20 ml of liquid Woody Plant Medium to which the above-mentioned component was added to give the same concentration and shake culture was carried out with a rotary shaker (amplification of 25 mm, 120 rpm) and the callus was subcultured in every 21 days to accelerate the growth rate thereof.
One gram (fresh weight) of the cultured cells thus obtained was inoculated to an Erlenmeyer flask containing 20 ml of liquid Woody Plant Medium to which the above-mentioned component was added to give the same concentration, and shake culture was carried out at 25° C. for 14 days. On the 14th day after starting the culture, 50 μl of coronatine [formula (IV)] was added as coronatines to the culture medium to give the final concentration of 0.001-1000 μM and the culture was further carried out for another 7 days.
After completing the culture, cultured cells of Taxus baccata LINN were harvested by filtration and lyophilized, then the dry weight was measured to obtain the yeild of the cultured cells per liter of the liquid medium.

[2] = system: cultured cells of Taxus baccata LINN; assay: Taxus baccata cell culture with cyclic polysaccharides
Description: A part of stem of Taxus baccata LINN which had been previously sterilized with 2% antiformin solution or 70% ethanol solution or the like, was placed on solid Woody Plant Medium (containing gelan gum of 0.25% by weight) to which naphthalenacetic acid had been added to give the concentration of 10^−5 M, and static culture was carried out at 25° C. in a dark place to provide callus of Taxus baccata LINN. 0.1 g (fresh weight) of the callus was inoculated to a well having an inner diameter of 18 mm, containing 1 ml of liquid Woody Plant Medium to which the above-mentioned component was added to give the same concentration and shake culture was carried out with a rotary shaker (amplification of 25 mm, 120 rpm) and the callus was subcultured in every 28 days to accelerate the growth rate thereof.
One gram (fresh weight) of the cultured cells thus obtained was inoculated to an Erlenmeyer flask containing 20 ml of liquid Woody Plant Medium to which the above-mentioned component was added to give the same concentration, and shake culture was carried out at 25° C. for 14 days. […]
After completing the culture, cultured cells of Taxus baccata LINN were harvested by filtration and lyophilized, then the dry weight was measured to obtain the yeild thereof per liter of the liquid medium.

[3] = system: cultured cells of Taxus baccata LINN; assay: Taxus baccata cell culture with cyclic polysaccharides and methyl ester of jasmonic acid
Description: […] After completing the culture, cultured cells of Taxus baccata LINN were harvested by filtration and lyophilized, then the dry weight was measured to obtain the yeild thereof per liter of the liquid medium.

[4] = system: cultured cells of Taxus baccata LINN; assay: Taxus baccata cell culture with fatty acids or natural oil; settings: added fatty acid 100 μM; 14 days
Description: One gram (fresh weight) of the callus was inoculated to an Erlenmeyer flask containing 20 ml of liquid Woody Plant Medium and shake culture was carried out with a rotary shaker (amplification of 25 mm, 100 rpm) and the callus was subcultured in every 21 days to accelerate the growth rate thereof.

[5] = system: cultured cells of Taxus media; assay: Taxus media cell culture with derivatives of jasmonic acids; settings: concentration of derivative of jasmonic acids 100 μM
Description: A part of germ of Taxus media which had been previously sterilized with 2% antiformin solution or 70% ethanol solution or the like, was placed on solid Woody Plant Medium (containing gelan gum of 0.25% by weight) to which naphthalenacetic acid had been added to give the concentration of 10^−5 M, and static culture was carried out at 25° C. in a dark place to provide callus of Taxus media. One gram (fresh weight) of the callus was inoculated to an Erlenmeyer flask containing 20 ml of liquid Woody Plant Medium to which above-mentioned component was added to give the same concentration, the and shake culture was carried out with a rotary shaker (amplification of 25 mm, 100 rpm) and the callus was subcultured in every 14 days to accelerate the growth rate thereof.
Two grams (fresh weight) of the cultured cells thus obtained was inoculated to an Erlenmeyer flask containing 20 ml of liquid Woody Plant […], and the culture was further carried out for another 14 days.
After completing the culture, cultured cells of Taxus media were harvested by filtration and lyophilized, then the dry weight was measured to obtain the yield of the cultured cells per liter of the liquid medium.

[6] = concentration of coronatines 1 μM
[7] = concentration of coronatines 10 μM
[8] = concentration of β-cyclodextrin 0.01 mM
[9] = concentration of β-cyclodextrin 0.1 mM
[10] = concentration of β-cyclodextrin 1 mM
[11] = concentration of β-cyclodextrin 10 mM
[12] = β-cyclodextrin 0.01 mM + methyl ester of jasmonic acid 100 μM
[13] = β-cyclodextrin 0.1 mM + methyl ester of jasmonic acid 100 μM
[14] = β-cyclodextrin 1 mM + methyl ester of jasmonic acid 100 μM
[15] = β-cyclodextrin 10 mM + methyl ester of jasmonic acid 100 μM
[16] = 50 mM, 6-O-α-D-glucosyl-β-cyclodextrin was used
[17] = 6-O-α-D-glucosyl-β-cyclodextrin 50 mM + methyl ester of jasmonic acid 100 μM
[18] = cyclic polysaccharide 10 mM + methyl ester of jasmonic acid 100 μM
[19] = methyl ester of jasmonic acid 100 μM, β-cyclodextrin 0 mM

CCC1C=C(C(=O)NC(C(=O)O)C(C)C)C2CCC(=O)C2C1 (stereo not drawn) [Example 8, N-coronafacoylvaline]
yield of baccatin III [1, 6]: 25.0 mg/L | yield of cephalomannine [1, 6]: 9.2 mg/L | yield of cultured cells [1, 6]: 18.1 g/L | yield of taxol [1, 6]: 51.1 mg/L

CC[C@H]1C=C(C(=O)N[C@@]2(C(=O)OC)C[C@@H]2CC)[C@H]2CCC(=O)[C@H]2C1 [Example 9, methyl ester of coronatine]
yield of baccatin III [1, 6]: 4.6 mg/L | yield of cephalomannine [1, 6]: 6.6 mg/L | yield of cultured cells [1, 6]: 19.5 g/L | yield of taxol [1, 6]: 11.3 mg/L

CCC1C=C(C(=O)O)C2CCC(=O)C2C1 (stereo not drawn) [Example 10, coronafacic acid]
yield of baccatin III [1, 7]: 12.4 mg/L | yield of cephalomannine [1, 7]: 3.0 mg/L | yield of cultured cells [1, 7]: 18.6 g/L | yield of taxol [1, 7]: 6.2 mg/L

CC[C@H]1C=C(C(=O)OC)[C@H]2CCC(=O)[C@H]2C1 [Example 11, methyl ester of coronafacic acid]
yield of baccatin III [1, 7]: 8.4 mg/L | yield of cephalomannine [1, 7]: 5.1 mg/L | yield of cultured cells [1, 7]: 19.2 g/L

OC[C@H]1O[C@@H]2O[C@H]3[C@H](O)[C@@H](O)[C@@H](O[C@H]4[C@H](O)[C@@H](O)[C@@H](O[C@H]5[C@H](O)[C@@H](O)[C@@H](O[C@H]6[C@H](O)[C@@H](O)[C@@H](O[C@H]7[C@H](O)[C@@H](O)[C@@H](O[C@H]8[C@H](O)[C@@H](O)[C@@H](O[C@H]1[C@H](O)[C@H]2O)O[C@@H]8CO)O[C@@H]7CO)O[C@@H]6CO)O[C@@H]5CO)O[C@@H]4CO)O[C@@H]3CO [Example 13, β-cyclodextrin]
yeild of cultured cells [2, 8]: 19.0 g/L | yield of baccatin III [2, 8]: 2.5 mg/L | yield of cephalomannine [2, 8]: 0.7 mg/L | yield of taxol [2, 8]: 4.0 mg/L | yeild of cultured cells [2, 9]: 19.1 g/L | yield of baccatin III [2, 9]: 3.0 mg/L | yield of cephalomannine [2, 9]: 2.6 mg/L | yield of taxol [2, 9]: 4.2 mg/L | yeild of cultured cells [2, 10]: 20.1 g/L | yield of baccatin III [2, 10]: 4.2 mg/L | yield of cephalomannine [2, 10]: 3.0 mg/L | yield of taxol [2, 10]: 6.5 mg/L | yeild of cultured cells [2, 11]: 20.1 g/L | yield of baccatin III [2, 11]: 5.0 mg/L | yield of cephalomannine [2, 11]: 2.2 mg/L | yield of taxol [2, 11]: 10.5 mg/L | yield of baccatin III [3, 12]: 54.6 mg/L | yield of cephalomannine [3, 12]: 8.0 mg/L | yield of cultured cells [3, 12]: 15.6 g/L | yield of taxol [3, 12]: 28.5 mg/L | yield of baccatin III [3, 13]: 62.6 mg/L | yield of cephalomannine [3, 13]: 9.6 mg/L | yield of cultured cells [3, 13]: 16.3 g/L | yield of taxol [3, 13]: 35.4 mg/L | yield of baccatin III [3, 14]: 76.0 mg/L | yield of cephalomannine [3, 14]: 10.1 mg/L | yield of cultured cells [3, 14]: 15.4 g/L | yield of taxol [3, 14]: 42.3 mg/L | yield of baccatin III [3, 15]: 54.2 mg/L | yield of cephalomannine [3, 15]: 12.5 mg/L | yield of cultured cells [3, 15]: 17.3 g/L | yield of taxol [3, 15]: 64.4 mg/L

OC[C@H]1O[C@H](OC[C@H]2O[C@@H]3O[C@H]4[C@H](O)[C@@H](O)[C@@H](O[C@H]5[C@H](O)[C@@H](O)[C@@H](O[C@H]6[C@H](O)[C@@H](O)[C@@H](O[C@H]7[C@H](O)[C@@H](O)[C@@H](O[C@H]8[C@H](O)[C@@H](O)[C@@H](O[C@H]9[C@H](O)[C@@H](O)[C@@H](O[C@H]2[C@H](O)[C@H]3O)O[C@@H]9CO)O[C@@H]8CO)O[C@@H]7CO)O[C@@H]6CO)O[C@@H]5CO)O[C@@H]4CO)[C@H](O)[C@@H](O)[C@@H]1O [Example 17, 6-O-α-D-glucosyl-β-cyclodextrin]
yeild of cultured cells [2, 16]: 20.5 g/L | yield of baccatin III [2, 16]: 3.5 mg/L | yield of cephalomannine [2, 16]: 1.3 mg/L | yield of taxol [2, 16]: 8.2 mg/L | yield of baccatin III [3, 17]: 53.0 mg/L | yield of cephalomannine [3, 17]: 11.1 mg/L | yield of cultured cells [3, 17]: 17.5 g/L | yield of taxol [3, 17]: 45.9 mg/L

OC[C@H]1O[C@@H]2O[C@H]3[C@H](O)[C@@H](O)[C@@H](O[C@H]4[C@H](O)[C@@H](O)[C@@H](O[C@H]5[C@H](O)[C@@H](O)[C@@H](O[C@H]6[C@H](O)[C@@H](O)[C@@H](O[C@H]7[C@H](O)[C@@H](O)[C@@H](O[C@H]1[C@H](O)[C@H]2O)O[C@@H]7CO)O[C@@H]6CO)O[C@@H]5CO)O[C@@H]4CO)O[C@@H]3CO [Example 23, α-cyclodextrin]
yield of baccatin III [3, 18]: 55.7 mg/L | yield of cephalomannine [3, 18]: 7.5 mg/L | yield of cultured cells [3, 18]: 16.6 g/L | yield of taxol [3, 18]: 46.0 mg/L

OC[C@H]1O[C@@H]2O[C@H]3[C@H](O)[C@@H](O)[C@@H](O[C@H]4[C@H](O)[C@@H](O)[C@@H](O[C@H]5[C@H](O)[C@@H](O)[C@@H](O[C@H]6[C@H](O)[C@@H](O)[C@@H](O[C@H]7[C@H](O)[C@@H](O)[C@@H](O[C@H]8[C@H](O)[C@@H](O)[C@@H](O[C@H]9[C@H](O)[C@@H](O)[C@@H](O[C@H]1[C@H](O)[C@H]2O)O[C@@H]9CO)O[C@@H]8CO)O[C@@H]7CO)O[C@@H]6CO)O[C@@H]5CO)O[C@@H]4CO)O[C@@H]3CO [Example 24, γ-cyclodextrin]
yield of baccatin III [3, 18]: 85.2 mg/L | yield of cephalomannine [3, 18]: 8.5 mg/L | yield of cultured cells [3, 18]: 17.5 g/L | yield of taxol [3, 18]: 45.2 mg/L

CCCCCCCC/C=C\CCCCCCCC(=O)O [Example 27, oleic acid]
yield of cells [4]: 20 g/L | yield of taxane-type diterpenes, baccatin III [4]: 2 mg/L | yield of taxane-type diterpenes, cephalomannine [4]: 4 mg/L | yield of taxane-type diterpenes, taxol [4]: 9 mg/L

CCCCC/C=C\C/C=C\CCCCCCCC(=O)O [Example 28, linolic acid]
yield of cells [4]: 20 g/L | yield of taxane-type diterpenes, baccatin III [4]: 2 mg/L | yield of taxane-type diterpenes, cephalomannine [4]: 5 mg/L | yield of taxane-type diterpenes, taxol [4]: 7 mg/L

CCCCC/C=C\C/C=C\C/C=C\C/C=C\CCCC(=O)O [Example 29, arachidonic acid]
yield of cells [4]: 20 g/L | yield of taxane-type diterpenes, baccatin III [4]: 2 mg/L | yield of taxane-type diterpenes, cephalomannine [4]: 3 mg/L | yield of taxane-type diterpenes, taxol [4]: 6 mg/L

CC/C=C\CC1C(=O)CCC1CC(=O)OC (stereo not drawn) [Reference Example 1, methyl jasmonate, reference compound]
yield of baccatin III [3, 19]: 49.7 mg/L | yield of cephalomannine [3, 19]: 7.3 mg/L | yield of cultured cells [3, 19]: 15.4 g/L | yield of taxol [3, 19]: 25.9 mg/L | yield of cultured cells [5]: 16.8 g/L | yield of taxane-type diterpenes, baccatin III [5]: 12.1 mg/L | yield of taxane-type diterpenes, cephalomannine [5]: 4.2 mg/L | yield of taxane-type diterpenes, taxol [5]: 48.0 mg/L

cyclofructan [Example 25]
yield of baccatin III [3, 18]: 51.4 mg/L | yield of cephalomannine [3, 18]: 9.1 mg/L | yield of cultured cells [3, 18]: 17.9 g/L | yield of taxol [3, 18]: 48.9 mg/L

Source: patent publication US6465221B1, “Method of producing a taxane-type diterpene” (Mitsui Chemicals, Inc., priority 1994, dated 2002)
